{
  "source": "patent US7309799B2",
  "about": "(Collegium Pharmaceutical, Inc., priority 2004, dated 2007)",
  "origin": "cited, not measured here",
  "key": {"reuptake of serotonin": {"target": "reuptake of serotonin (Homo sapiens, UniProt P31645)", "sequence (P31645 whole entry)": "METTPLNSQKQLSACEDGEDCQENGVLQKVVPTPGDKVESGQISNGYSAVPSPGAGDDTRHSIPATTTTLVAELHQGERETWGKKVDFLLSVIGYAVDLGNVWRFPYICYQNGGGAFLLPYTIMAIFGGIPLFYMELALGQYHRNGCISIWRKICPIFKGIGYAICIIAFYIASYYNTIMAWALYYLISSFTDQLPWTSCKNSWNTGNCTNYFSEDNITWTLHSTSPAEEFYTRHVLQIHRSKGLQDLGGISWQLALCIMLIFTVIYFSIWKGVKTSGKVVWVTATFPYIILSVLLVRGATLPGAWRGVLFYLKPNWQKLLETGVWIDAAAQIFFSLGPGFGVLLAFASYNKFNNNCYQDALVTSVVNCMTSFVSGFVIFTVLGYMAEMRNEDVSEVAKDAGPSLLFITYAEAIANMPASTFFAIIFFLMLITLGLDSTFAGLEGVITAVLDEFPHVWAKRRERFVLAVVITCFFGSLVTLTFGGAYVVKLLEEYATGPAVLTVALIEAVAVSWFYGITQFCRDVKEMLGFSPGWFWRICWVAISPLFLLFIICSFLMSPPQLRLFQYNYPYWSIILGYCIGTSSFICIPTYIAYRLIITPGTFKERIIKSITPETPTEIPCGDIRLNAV", "conditions": "compared with noradrenaline reuptake"}, "gastric mucosa": {"tested_on": "gastric mucosa", "conditions": "preclinical studies"}, "[1]": {"tested_on": "neurotransmitter receptor"}, "[2]": {"tested_on": "SNL-induced hypersensitivity", "conditions": "rats; for reversal of mechanical hypersensitivity: SNL"}},
  "data": [
    {"smiles": "CCN(CC)C(=O)[C@@]1(c2ccccc2)C[C@H]1CN.Cl", "note": "(racemic) [milnacipran, racemic cis-2-(aminomethyl)-N,N-diethyl-1-phenyl-cyclopropanecarboxamide]", "values": [
      {"measurement": "potency of inhibition of the reuptake of serotonin", "setting": "reuptake of serotonin", "value": "essentially equal potency"},
      {"measurement": "effect on gastric mucosa", "setting": "gastric mucosa", "value": "direct irritant effect"},
      {"measurement": "affinity for any neurotransmitter receptor studied", "setting": "[1]", "value": "no detectable affinity"},
      {"measurement": "general and cardiovascular tolerability versus TCAs", "setting": "database of over 3300 patients", "value": "superior to those of the tricyclic antidepressants (TCAs)"},
      {"measurement": "incidence of dysuria versus SSRIs", "setting": "human, in vivo", "value": "higher incidence of dysuria"},
      {"measurement": "tolerability versus SSRIs", "setting": "human, in vivo", "value": "comparable to that of the SSRIs"},
      {"measurement": "nausea and vomiting (dose-limiting gastrointestinal disturbances)", "setting": "oral administration", "value": "increasing frequency after doses of 100 mg or above"},
      {"measurement": "effectiveness in reversing SNL induced thermal hypersensitivity compared with duloxetine", "setting": "[2]", "value": "more effective"},
      {"measurement": "reversal of SNL-induced thermal hypersensitivity", "setting": "[2]", "value": "both reversed"},
      {"measurement": "reversal of mechanical hypersensitivity", "setting": "[2]", "value": "Neither milnacipran nor duloxetine reversed"}
    ]},
    {"smiles": "CNCC[C@H](Oc1cccc2ccccc12)c1cccs1", "note": "[duloxetine]", "values": [
      {"measurement": "reversal of SNL-induced thermal hypersensitivity", "setting": "[2]", "value": "both reversed"},
      {"measurement": "reversal of mechanical hypersensitivity", "setting": "[2]", "value": "Neither milnacipran nor duloxetine reversed"}
    ]}
  ]
}
